Format in all cases: cell-based
The target in one test is T1, BRAF V600E (Homo sapiens, UniProt P15056, V600E).
T1 construct: endogenous C-terminal HiBiT fusion tag on BRAF V600E allele; endogenous in cells; host or cells: A375 clone 1F10 (CRISPR-Cas9 knock-in of the HiBiT tag; parental A375 from ATCC)
In words: BRAF HiBiT degradation assay, C-terminal HiBiT-tagged BRAF V600E A375 cells (clone 1F10), Nano-Glo HiBiT Lytic assay. Particulars: for Dmax: A-375. Put shortly:
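Degradation is measured as loss of HiBiT signal from BRAF V600E tagged at its native locus in A375 cells. Doses span 1 μM to 0.01 nM in half-log steps, in duplicate. Percent remaining is calculated against DMSO controls after subtracting untagged A375 background, and curve fitting yields DC50 and observed Dmax.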

The target in another test is T2, BRAF G466V (Homo sapiens, UniProt P15056, G466V).
T2 construct: Horizon Discovery (HCT-116 BRAF−/− cells); host or cells: HCT-116 BRAF−/− cells, clone 8, lentiviral transduction
As to the kind of experiment: BRAF HiBiT degradation assay, C-terminal HiBiT-tagged BRAF G466V overexpressed in HCT-116 BRAF−/− cells (clone 8), Nano-Glo HiBiT Lytic assay. The source says: (§1) An A375 cell line expressing a homozygous V600E mutation was purchased from ATCC (Manassas, VA, USA). An A375 clone 1F10 cell line with an endogenous C-terminal HiBiT fusion tag on BRAF V600E allele was generated internally using CRISPR-Cas9 technology and cultured in DMEM, high glucose supplemented with 10% FBS and 1× GlutaMAX. A HCT-116 BRAF−/− cell line overexpressing the C-terminal HiBiT-tagged G466V, G469A, and D594G mutants were generated by lentiviral transduction, externally at Biosettia Inc (San Diego, CA, USA). The stably transfected cells were cultured in RPMI media supplemented with 10% FBS, 1× GlutaMAX, and 0.25 μg/ml puromycin. DMEM medium, RPMI 1640 medium, GlutaMAX, fetal bovine serum (FBS), and puromycin were purchased from Gibco (Grand Island, NY, USA). HCT-116 BRAF−/− cells were purchased from Horizon Discovery (Waterbeach, UK).
(§2) The C-terminal HiBiT tagged mutant BRAF G466V, G469A, and D594G overexpressed in HCT-116 BRAF−/− cells (monoclonal cell line, cell clones 8, 34, and 63, respectively) were seeded at the density of 3,000 cells/well in 30 μL media (RPMI supplemented with 10% FBS and 1× GlutaMAX) in white opaque 384-well plates (Corning #3570) from column 1 to column 23. Wildtype HCT-116 BRAF cells were seeded in column 24 at the same cell density in 30 μL media. Cells were incubated at 37° C. with 5% CO2 for 24 h.
(§3) Intermediate compound dilution series (5-point, ranging from 5 mM to 0.5 μM, 10-fold dilutions in DMSO) were prepared in a source plate (Beckman Coulter cat. no. 001-16128). Final compound dilution series (11-point, ranging from 1 μM to 0.01 nM, half-log dilutions in DMSO) were stamped into the assay plate (Corning #3570, column 1-11 and 12-22) using the Echo Acoustic Liquid Handler (Beckman Coulter). Each compound was plated in duplicate, and the total volume of compound DMSO solution was 60 nL/well (0.2% final DMSO concentration). DMSO was included in wells A23-L23 and A24-L24. The DMSO-treated HiBiT-tagged samples served as Negative Control (NC) and the DMSO-treated wildtype samples served as Background Control (BC) for the HiBiT assay.
(§4) HiBiT signal was measured by a Nano-Glo HiBiT Lytic assay (Promega cat. no. N3050). HiBiT lytic detection reagent (Nano-Glo HiBiT Lytic Buffer with 1:50 Nano-Glo HiBiT Lytic Substrate and 1:100 LgBiT Protein, 40 μL) was added using Bravo. The mixture was incubated at room temperature, in the dark, and with gentle shaking for 10 min. Luminesce units (LU) were read on an EnVision plate reader 2105 (Perkin Elmer).
(§5) Percent protein remaining and viability remaining per sample were calculated as follows: […]
(§6) % Protein remaining values were plotted as a function of compound concentration. XC50 (DC50) values were determined by fitting curves using the following equation:
(§7) For the HiBiT degradation assay, the key parameters reported include: • The dose of compound that produces 50% degradation (DC50 at 50%): • DC50 at 50%: the Fitted X value (Conc.) at Y=50 (response) • Observed Dmax (Obs. Dmax) is the percentage protein degraded at maximal compound effect relative to DMSO-treated control: […]
For orientation: The HiBiT peptide binds its large partner to form an active luciferase.

For another test, the target named is T3, BRAF G469A (Homo sapiens, UniProt P15056, G469A).
T3 construct: Horizon Discovery (HCT-116 BRAF−/− cells); host or cells: HCT-116 BRAF−/− cells, clone 34, lentiviral transduction
As to the kind of experiment: BRAF HiBiT degradation assay, C-terminal HiBiT-tagged BRAF G469A overexpressed in HCT-116 BRAF−/− cells (clone 34), Nano-Glo HiBiT Lytic assay.
Text: as §1, §2, §3, §4, §5, §6, §7

Another test addresses T4, BRAF D594G (Homo sapiens, UniProt P15056, D594G).
T4 construct: Horizon Discovery (HCT-116 BRAF−/− cells); host or cells: HCT-116 BRAF−/− cells, clone 63, lentiviral transduction
As to the kind of experiment: BRAF HiBiT degradation assay, C-terminal HiBiT-tagged BRAF D594G overexpressed in HCT-116 BRAF−/− cells (clone 63), Nano-Glo HiBiT Lytic assay.
Text: as §1, §2, §3, §4, §5, §6, §7

The mark [1] stands for this setting: A375 (BRAF V600E), DC50 at 50%: fitted conc. at Y=50.
Where [2] appears, read: A375 (BRAF V600E), percentage protein degraded at maximal compound effect relative to DMSO.
Where [3] appears, read: BRAF G466V, DC50 at 50%: fitted conc. at Y=50.
Where [4] appears, read: HCT-116, BRAF G466V, percentage protein degraded at maximal compound effect relative to DMSO.
Where [5] appears, read: Class 2, BRAF G469A, DC50 at 50%: fitted conc. at Y=50.
Where [6] appears, read: HCT-116, Class 2, BRAF G469A, percentage protein degraded at maximal compound effect relative to DMSO.
Setting [7] is: BRAF D594G, DC50 at 50%: fitted conc. at Y=50.
Setting [8] is: HCT-116, BRAF D594G, percentage protein degraded at maximal compound effect relative to DMSO.

T2 sequence (P15056 whole entry G466V): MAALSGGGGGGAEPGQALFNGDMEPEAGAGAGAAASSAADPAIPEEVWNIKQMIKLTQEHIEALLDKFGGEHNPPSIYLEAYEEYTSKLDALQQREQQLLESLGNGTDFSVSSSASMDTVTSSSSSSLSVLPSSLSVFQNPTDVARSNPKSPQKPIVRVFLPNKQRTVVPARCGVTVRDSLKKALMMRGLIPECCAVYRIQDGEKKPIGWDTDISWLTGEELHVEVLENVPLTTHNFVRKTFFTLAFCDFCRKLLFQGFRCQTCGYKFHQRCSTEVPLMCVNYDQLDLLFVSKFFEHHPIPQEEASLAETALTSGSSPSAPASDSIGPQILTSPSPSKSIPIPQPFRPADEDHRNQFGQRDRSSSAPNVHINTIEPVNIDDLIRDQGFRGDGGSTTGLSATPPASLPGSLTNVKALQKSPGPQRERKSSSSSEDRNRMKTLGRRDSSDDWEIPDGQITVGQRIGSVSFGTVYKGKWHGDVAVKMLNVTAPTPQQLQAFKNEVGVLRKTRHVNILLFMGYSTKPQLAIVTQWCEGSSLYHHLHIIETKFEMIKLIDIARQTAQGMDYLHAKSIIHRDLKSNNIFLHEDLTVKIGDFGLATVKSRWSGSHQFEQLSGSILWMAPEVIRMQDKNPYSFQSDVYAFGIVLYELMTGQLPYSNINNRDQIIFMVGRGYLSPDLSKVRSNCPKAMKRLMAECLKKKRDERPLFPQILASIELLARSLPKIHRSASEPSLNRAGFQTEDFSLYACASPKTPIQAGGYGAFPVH
T3 sequence (P15056 whole entry G469A): as the sequence (P15056 whole entry G466V) above, with V466G, G469A counted along it
T4 sequence (P15056 whole entry D594G): as the sequence (P15056 whole entry G466V) above, with V466G, D594G counted along it
T1 sequence (P15056 whole entry V600E, the tested form may be a part): as the sequence (P15056 whole entry G466V) above, with V466G, V600E counted along it

What is called DC50 is the concentration at which degradation of the target reaches its halfway point. A higher DC50 goes with a less potent degrader. One may read the Dmax as the largest share of the target that was removed. Lower therefore signals shallow degradation. On to `O=C1CCN(c2ccc(N3CCC(CN4CCN(c5ccc(-n6cc(-c7cc(Cl)cc(NS(=O)(=O)N8CCCC8)c7F)c(-c7ccncc7)n6)cc5)CC4)CC3)nc2)C(=O)N1` [Compound 355, N-[5-chloro-3-(1-{4-[4-({1-[5-(2,4-dioxo-1,3-diazinan-1-yl)pyridin-2-yl]piperidin-4-yl}methyl)piperazin-1-yl]phenyl}-3-(pyridin-4-yl)-1H-pyrazol-4-yl)-2-fluorophenyl]pyrrolidine-1-sulfonamide], for which the DC50 was below 10 nM at BRAF V600E (A375 (BRAF V600E, Class 1), DC50 at 50% degradation); below 10 nM on BRAF G466V (BRAF G466V (Class 3), HCT-116 BRAF−/− cells, DC50 at 50% degradation); 10 to 50 nM at BRAF G469A (BRAF G469A (Class 2), HCT-116 BRAF−/− cells, DC50 at 50% degradation); below 10 nM at BRAF D594G (BRAF D594G (Class 3), HCT-116 BRAF−/− cells, DC50 at 50% degradation). For the same compound, the Dmax was above 70% at BRAF V600E (A375 (BRAF V600E, Class 1), observed Dmax, % protein degraded relative to DMSO control); above 70% on BRAF G466V (BRAF G466V (Class 3), HCT-116 BRAF−/− cells, observed Dmax relative to DMSO control); 30 to 70% on BRAF G469A (BRAF G469A (Class 2), HCT-116 BRAF−/− cells, observed Dmax relative to DMSO control); 30 to 70% at BRAF D594G (BRAF D594G (Class 3), HCT-116 BRAF−/− cells, observed Dmax relative to DMSO control).

Regarding `CCCS(=O)(=O)Nc1cccc(-c2nc(C(C)(C)C)sc2-c2ccnc(Nc3ccc(N4CCN(C(=O)CC5CCN(c6ccc(C7CCC(=O)NC7=O)cn6)CC5)CC4)c(F)c3)n2)c1F` (racemic) [Compound 48, Rac-N-[3-(2-tert-butyl-5-{2-[(4-{4-[2-(1-{5-[(3R)-2,6-dioxopiperidin-3-yl]pyridin-2-yl}piperidin-4-yl)acetyl]piperazin-1-yl}-3-fluorophenyl)amino]pyrimidin-4-yl}-1,3-thiazol-4-yl)-2-fluorophenyl]propane-1-sulfonamide], the DC50 is below 10 nM on BRAF V600E (setting [1]), above 500 nM on BRAF G466V (setting [3]), above 500 nM on BRAF G469A (setting [5]) and above 500 nM on BRAF D594G (setting [7]). For the same compound, the Dmax is above 70% on BRAF V600E (setting [2]), below 30% on BRAF G466V (setting [4]), below 30% on BRAF G469A (setting [6]) and 30 to 70% at BRAF D594G (setting [8]).

As to `CCCS(=O)(=O)Nc1cccc(-c2nc(C3CCN(C(=O)C4(C)CCN(C(=O)C5CCN(c6ccc(C7CCC(=O)NC7=O)cc6)CC5)CC4)CC3)sc2-c2ccnc(NC(C)C)n2)c1F` (racemic) [Compound 179, Rac-N-[3-(2-{1-[1-(1-{4-[(3R)-2,6-dioxopiperidin-3-yl]phenyl}piperidine-4-carbonyl)-4-methylpiperidine-4-carbonyl]piperidin-4-yl}-5-{2-[(propan-2-yl)amino]pyrimidin-4-yl}-1,3-thiazol-4-yl)-2-fluorophenyl]propane-1-sulfonamide], the DC50 at BRAF V600E (setting [1]) is below 10 nM; on BRAF G466V (setting [3]) it was above 500 nM; at BRAF G469A (setting [5]), above 500 nM; on BRAF D594G (setting [7]), below 10 nM. Besides, the Dmax on BRAF V600E (setting [2]) was above 70%; on BRAF G466V (setting [4]) it was 30 to 70%; on BRAF G469A (setting [6]) it was below 30%; on BRAF D594G (setting [8]), 30 to 70%.

Turning to `CCCS(=O)(=O)Nc1cccc(-c2nc(-c3ccc(N4CCN(CC5CCN(c6ccc([C@@H]7CCC(=O)NC7=O)cc6)CC5)CC4)cc3)sc2-c2ccnc(N)n2)c1F` [Compound 186, N-{3-[5-(2-aminopyrimidin-4-yl)-2-(4-{4-[(1-{4-[(3S)-2,6-dioxopiperidin-3-yl]phenyl}piperidin-4-yl)methyl]piperazin-1-yl}phenyl)-1,3-thiazol-4-yl]-2-fluorophenyl}propane-1-sulfonamide], the 50% degradation concentration (DC50) on BRAF V600E (setting [1]) is 10 to 50 nM; at BRAF G466V (setting [3]), above 500 nM; at BRAF G469A (setting [5]), above 500 nM; on BRAF D594G (setting [7]), above 500 nM. Besides, the Dmax on BRAF V600E (setting [2]) is above 70%; on BRAF G466V (setting [4]), 30 to 70%; on BRAF G469A (setting [6]) it was below 30%; at BRAF D594G (setting [8]) it was 30 to 70%.

These data come from US20260317324A1, “BIFUNCTIONAL COMPOUNDS FOR DEGRADING BRAF VIA UBIQUITIN PROTEOSOME PATHWAY” (Nurix Therapeutics, Inc., priority 2023, published 2026).
